Laboratory results published in ChEMBL document CHEMBL4507272 (2021).

Tests used:
[1] = molecular target: Receptor tyrosine-protein kinase erbB-4 (Homo sapiens) (UniProt Q15303); conditions: Compound concentration 1000.0 nM
[2] = molecular target: Cyclin-dependent kinase 3 (Homo sapiens) (UniProt Q00526); conditions: Compound concentration 1000.0 nM
[3] = tested on: Epidermal growth factor receptor (Homo sapiens), P00533 [UNDEFINED MUTATION]; conditions: Compound concentration 1000.0 nM
[4] = molecular target: Phosphatidylinositol 4-kinase beta (Homo sapiens) (UniProt Q9UBF8); conditions: Compound concentration 1000.0 nM
[5] = tested on: Leucine-rich repeat serine/threonine-protein kinase 2 (Homo sapiens), Q5S007 [G2019S]; conditions: Compound concentration 1000.0 nM
[6] = molecular target: Serine/threonine-protein kinase BRSK1 (Homo sapiens) (UniProt Q8TDC3); conditions: Compound concentration 1000.0 nM
[7] = molecular target: Calcium/calmodulin-dependent protein kinase kinase 2 (Homo sapiens) (UniProt Q96RR4); conditions: Compound concentration 1000.0 nM
[8] = molecular target: Death-associated protein kinase 3 (Homo sapiens) (UniProt O43293); conditions: Compound concentration 1000.0 nM
[9] = molecular target: Dual specificity protein kinase CLK4 (Homo sapiens) (UniProt Q9HAZ1); conditions: Compound concentration 1000.0 nM
[10] = molecular target: Myotonin-protein kinase (Homo sapiens) (UniProt Q09013); conditions: Compound concentration 1000.0 nM
[11] = molecular target: Serine/threonine-protein kinase Nek7 (Homo sapiens) (UniProt Q8TDX7); conditions: Compound concentration 1000.0 nM
[12] = molecular target: GABA-A receptor; anion channel (Rattus norvegicus) (UniProt O09028+P15431+P18506+P18508+P19969+P20236+P23574+P23576+P28471+P28473+P30191+P62813+P63079+P63138+Q91ZM7+Q9ES14); conditions: Compound concentration 10.0 uM
[13] = molecular target: Serine/threonine-protein kinase SIK3 (Homo sapiens) (UniProt Q9Y2K2); conditions: Compound concentration 1000.0 nM
[14] = molecular target: Tyrosine-protein kinase JAK3 (Homo sapiens) (UniProt P52333); conditions: Compound concentration 1000.0 nM
[15] = molecular target: High affinity nerve growth factor receptor (Homo sapiens) (UniProt P04629); conditions: Compound concentration 1000.0 nM
[16] = molecular target: SRSF protein kinase 3 (Homo sapiens) (UniProt Q9UPE1); conditions: Compound concentration 1000.0 nM
[17] = molecular target: Tyrosine-protein kinase Mer (Homo sapiens) (UniProt Q12866); conditions: Compound concentration 1000.0 nM
[18] = tested on: Receptor-type tyrosine-protein kinase FLT3 (Homo sapiens), P36888 [D835V]; conditions: Compound concentration 1000.0 nM
[19] = molecular target: Serine/threonine-protein kinase LATS1 (Homo sapiens) (UniProt O95835); conditions: Compound concentration 1000.0 nM
[20] = molecular target: Mitogen-activated protein kinase kinase kinase kinase 3 (Homo sapiens) (UniProt Q8IVH8); conditions: Compound concentration 1000.0 nM
[21] = molecular target: Bone morphogenetic protein receptor type-2 (Homo sapiens) (UniProt Q13873); conditions: Compound concentration 1000.0 nM
[22] = molecular target: Serine/threonine-protein kinase DCLK1 (Homo sapiens) (UniProt O15075); conditions: Compound concentration 1000.0 nM
[23] = molecular target: Serine/threonine-protein kinase 17A (Homo sapiens) (UniProt Q9UEE5); conditions: Compound concentration 1000.0 nM
[24] = molecular target: NT-3 growth factor receptor (Homo sapiens) (UniProt Q16288); conditions: Compound concentration 1000.0 nM
[25] = molecular target: Mitogen-activated protein kinase 6 (Homo sapiens) (UniProt Q16659); conditions: Compound concentration 1000.0 nM
[26] = molecular target: 1-phosphatidylinositol 3-phosphate 5-kinase (Homo sapiens) (UniProt Q9Y2I7); conditions: Compound concentration 1000.0 nM
[27] = tested on: Tyrosine-protein kinase ABL1 (Homo sapiens), P00519 [Y253F]; conditions: Compound concentration 1000.0 nM
[28] = molecular target: Cyclin-dependent kinase 4 (Homo sapiens) (UniProt P11802); conditions: Compound concentration 1000.0 nM
[29] = molecular target: Phosphatidylinositol 4-phosphate 5-kinase type-1 gamma (Homo sapiens) (UniProt O60331); conditions: Compound concentration 1000.0 nM
[30] = tested on: Mast/stem cell growth factor receptor Kit (Homo sapiens), P10721 [D816V]; conditions: Compound concentration 1000.0 nM
[31] = molecular target: Muscle, skeletal receptor tyrosine-protein kinase (Homo sapiens) (UniProt O15146); conditions: Compound concentration 1000.0 nM
[32] = molecular target: Cyclin-dependent kinase 4 (Homo sapiens) (UniProt P11802); conditions: Compound concentration 1000.0 nM; remark: listed apart in the source
[33] = molecular target: Muscarinic acetylcholine receptor M5 (Homo sapiens) (UniProt P08912); conditions: Compound concentration 10.0 uM
[34] = molecular target: MAP/microtubule affinity-regulating kinase 4 (Homo sapiens) (UniProt Q96L34); conditions: Compound concentration 1000.0 nM
[35] = molecular target: Ribosomal protein S6 kinase alpha-5 (Homo sapiens) (UniProt O75582); conditions: Compound concentration 1000.0 nM
[36] = molecular target: Dual specificity protein kinase CLK2 (Homo sapiens) (UniProt P49760); conditions: Compound concentration 1000.0 nM
[37] = molecular target: Tyrosine-protein kinase Srms (Homo sapiens) (UniProt Q9H3Y6); conditions: Compound concentration 1000.0 nM
[38] = molecular target: Homeodomain-interacting protein kinase 4 (Homo sapiens) (UniProt Q8NE63); conditions: Compound concentration 1000.0 nM
[39] = molecular target: Dual serine/threonine and tyrosine protein kinase (Homo sapiens) (UniProt Q6XUX3); conditions: Compound concentration 1000.0 nM
[40] = molecular target: Cyclin-dependent kinase 13 (Homo sapiens) (UniProt Q14004); conditions: Compound concentration 1000.0 nM
[41] = molecular target: cAMP-dependent protein kinase catalytic subunit alpha (Homo sapiens) (UniProt P17612); conditions: Compound concentration 1000.0 nM
[42] = molecular target: RAC-gamma serine/threonine-protein kinase (Homo sapiens) (UniProt Q9Y243); conditions: Compound concentration 1000.0 nM
[43] = molecular target: Tyrosine-protein kinase ABL1 (Homo sapiens) (UniProt P00519); conditions: Compound concentration 1000.0 nM
[44] = molecular target: Homeodomain-interacting protein kinase 1 (Homo sapiens) (UniProt Q86Z02); conditions: Compound concentration 1000.0 nM

Chain of Cyclin-dependent kinase 4 (Homo sapiens) (P11802 whole entry): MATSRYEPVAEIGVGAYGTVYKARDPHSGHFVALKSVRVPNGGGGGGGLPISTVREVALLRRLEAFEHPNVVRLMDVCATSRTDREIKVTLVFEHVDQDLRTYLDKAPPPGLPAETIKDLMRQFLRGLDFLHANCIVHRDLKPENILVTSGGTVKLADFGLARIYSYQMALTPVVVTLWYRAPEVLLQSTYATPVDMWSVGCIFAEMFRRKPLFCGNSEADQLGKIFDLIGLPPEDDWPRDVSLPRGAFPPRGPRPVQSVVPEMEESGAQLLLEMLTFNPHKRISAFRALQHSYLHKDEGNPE
Chain of Mitogen-activated protein kinase kinase kinase kinase 3 (Homo sapiens) (Q8IVH8 whole entry): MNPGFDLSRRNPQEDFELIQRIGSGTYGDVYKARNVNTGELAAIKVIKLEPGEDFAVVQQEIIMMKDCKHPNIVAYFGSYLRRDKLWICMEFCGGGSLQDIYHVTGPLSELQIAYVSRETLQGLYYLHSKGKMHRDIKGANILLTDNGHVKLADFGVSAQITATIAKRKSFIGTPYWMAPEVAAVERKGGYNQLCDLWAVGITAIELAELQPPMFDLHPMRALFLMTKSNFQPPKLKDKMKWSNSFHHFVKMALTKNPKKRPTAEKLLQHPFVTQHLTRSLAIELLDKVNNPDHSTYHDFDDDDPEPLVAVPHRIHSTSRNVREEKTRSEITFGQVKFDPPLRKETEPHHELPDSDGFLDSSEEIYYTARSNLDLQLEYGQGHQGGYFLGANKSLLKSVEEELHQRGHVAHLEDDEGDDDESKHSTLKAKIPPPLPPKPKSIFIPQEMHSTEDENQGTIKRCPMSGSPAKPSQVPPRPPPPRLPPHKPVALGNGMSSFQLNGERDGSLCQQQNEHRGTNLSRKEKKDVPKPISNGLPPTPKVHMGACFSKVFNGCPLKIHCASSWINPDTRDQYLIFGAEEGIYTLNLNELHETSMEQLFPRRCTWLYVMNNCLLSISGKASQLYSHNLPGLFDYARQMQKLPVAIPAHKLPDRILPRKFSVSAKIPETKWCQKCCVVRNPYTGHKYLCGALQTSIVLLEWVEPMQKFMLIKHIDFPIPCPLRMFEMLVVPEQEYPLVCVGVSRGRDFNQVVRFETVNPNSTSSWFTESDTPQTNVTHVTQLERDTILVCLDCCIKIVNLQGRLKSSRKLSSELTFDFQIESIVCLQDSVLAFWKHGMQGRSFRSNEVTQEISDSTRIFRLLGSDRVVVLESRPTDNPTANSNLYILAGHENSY
Chain of SRSF protein kinase 3 (Homo sapiens) (Q9UPE1 whole entry): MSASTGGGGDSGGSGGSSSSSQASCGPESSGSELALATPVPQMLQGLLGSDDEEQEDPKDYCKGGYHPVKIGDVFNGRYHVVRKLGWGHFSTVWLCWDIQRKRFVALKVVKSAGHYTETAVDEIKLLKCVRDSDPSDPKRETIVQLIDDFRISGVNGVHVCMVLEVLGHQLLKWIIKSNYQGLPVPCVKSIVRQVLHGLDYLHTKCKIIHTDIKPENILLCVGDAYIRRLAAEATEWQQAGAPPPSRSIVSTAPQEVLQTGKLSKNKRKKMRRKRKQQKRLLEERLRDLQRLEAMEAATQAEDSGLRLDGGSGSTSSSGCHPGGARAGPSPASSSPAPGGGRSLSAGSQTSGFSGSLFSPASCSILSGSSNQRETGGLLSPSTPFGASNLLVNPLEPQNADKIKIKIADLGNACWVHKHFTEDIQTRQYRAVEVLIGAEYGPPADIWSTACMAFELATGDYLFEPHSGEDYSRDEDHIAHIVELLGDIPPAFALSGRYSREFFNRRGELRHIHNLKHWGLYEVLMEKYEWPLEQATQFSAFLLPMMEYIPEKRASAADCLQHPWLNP
Chain of Phosphatidylinositol 4-kinase beta (Homo sapiens) (Q9UBF8 2-816 limits assumed): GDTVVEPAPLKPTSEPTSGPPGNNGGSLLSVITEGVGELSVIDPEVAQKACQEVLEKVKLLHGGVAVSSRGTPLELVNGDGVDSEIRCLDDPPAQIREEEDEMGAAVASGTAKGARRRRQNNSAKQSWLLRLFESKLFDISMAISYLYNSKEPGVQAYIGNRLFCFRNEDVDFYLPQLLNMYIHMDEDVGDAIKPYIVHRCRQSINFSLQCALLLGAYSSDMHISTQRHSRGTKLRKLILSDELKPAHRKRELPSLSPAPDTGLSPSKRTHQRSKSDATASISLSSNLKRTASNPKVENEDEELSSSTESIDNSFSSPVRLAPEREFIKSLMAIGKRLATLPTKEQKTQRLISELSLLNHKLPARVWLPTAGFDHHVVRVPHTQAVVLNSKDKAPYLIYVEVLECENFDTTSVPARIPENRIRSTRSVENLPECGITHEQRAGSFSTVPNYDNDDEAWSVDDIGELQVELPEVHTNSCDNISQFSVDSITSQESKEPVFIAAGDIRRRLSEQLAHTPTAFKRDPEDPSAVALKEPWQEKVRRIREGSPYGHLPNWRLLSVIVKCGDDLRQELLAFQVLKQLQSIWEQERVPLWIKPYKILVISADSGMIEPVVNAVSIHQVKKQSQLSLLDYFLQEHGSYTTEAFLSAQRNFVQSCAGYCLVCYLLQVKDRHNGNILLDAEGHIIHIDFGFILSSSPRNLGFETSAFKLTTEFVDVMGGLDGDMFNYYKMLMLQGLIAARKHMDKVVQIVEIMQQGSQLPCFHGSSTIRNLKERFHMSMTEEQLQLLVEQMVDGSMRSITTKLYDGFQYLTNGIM
Chain of Muscle, skeletal receptor tyrosine-protein kinase (Homo sapiens) (O15146 whole entry): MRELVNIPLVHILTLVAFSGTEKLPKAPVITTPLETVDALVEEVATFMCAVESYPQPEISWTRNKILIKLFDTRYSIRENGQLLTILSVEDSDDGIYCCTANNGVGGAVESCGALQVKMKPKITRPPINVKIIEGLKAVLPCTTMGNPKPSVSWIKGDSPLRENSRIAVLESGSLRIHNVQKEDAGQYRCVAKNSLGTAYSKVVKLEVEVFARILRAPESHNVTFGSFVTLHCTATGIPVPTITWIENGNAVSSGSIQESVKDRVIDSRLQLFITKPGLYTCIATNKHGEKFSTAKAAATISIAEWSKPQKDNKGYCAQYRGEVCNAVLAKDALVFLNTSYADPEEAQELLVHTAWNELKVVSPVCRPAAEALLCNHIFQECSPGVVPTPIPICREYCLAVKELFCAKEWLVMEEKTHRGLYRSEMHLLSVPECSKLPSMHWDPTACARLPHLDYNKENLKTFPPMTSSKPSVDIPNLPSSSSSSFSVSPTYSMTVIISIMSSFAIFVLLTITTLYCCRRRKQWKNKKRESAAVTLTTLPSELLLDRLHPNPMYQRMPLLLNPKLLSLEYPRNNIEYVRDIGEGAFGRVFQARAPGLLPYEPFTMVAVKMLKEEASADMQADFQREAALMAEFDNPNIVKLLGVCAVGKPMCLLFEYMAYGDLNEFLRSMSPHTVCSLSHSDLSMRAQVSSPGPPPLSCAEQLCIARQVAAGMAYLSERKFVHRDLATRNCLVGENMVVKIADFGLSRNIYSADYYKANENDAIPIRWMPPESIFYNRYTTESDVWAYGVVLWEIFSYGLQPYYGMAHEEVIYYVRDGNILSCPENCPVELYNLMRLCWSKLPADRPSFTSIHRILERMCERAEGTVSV
Chain of Serine/threonine-protein kinase LATS1 (Homo sapiens) (O95835 whole entry): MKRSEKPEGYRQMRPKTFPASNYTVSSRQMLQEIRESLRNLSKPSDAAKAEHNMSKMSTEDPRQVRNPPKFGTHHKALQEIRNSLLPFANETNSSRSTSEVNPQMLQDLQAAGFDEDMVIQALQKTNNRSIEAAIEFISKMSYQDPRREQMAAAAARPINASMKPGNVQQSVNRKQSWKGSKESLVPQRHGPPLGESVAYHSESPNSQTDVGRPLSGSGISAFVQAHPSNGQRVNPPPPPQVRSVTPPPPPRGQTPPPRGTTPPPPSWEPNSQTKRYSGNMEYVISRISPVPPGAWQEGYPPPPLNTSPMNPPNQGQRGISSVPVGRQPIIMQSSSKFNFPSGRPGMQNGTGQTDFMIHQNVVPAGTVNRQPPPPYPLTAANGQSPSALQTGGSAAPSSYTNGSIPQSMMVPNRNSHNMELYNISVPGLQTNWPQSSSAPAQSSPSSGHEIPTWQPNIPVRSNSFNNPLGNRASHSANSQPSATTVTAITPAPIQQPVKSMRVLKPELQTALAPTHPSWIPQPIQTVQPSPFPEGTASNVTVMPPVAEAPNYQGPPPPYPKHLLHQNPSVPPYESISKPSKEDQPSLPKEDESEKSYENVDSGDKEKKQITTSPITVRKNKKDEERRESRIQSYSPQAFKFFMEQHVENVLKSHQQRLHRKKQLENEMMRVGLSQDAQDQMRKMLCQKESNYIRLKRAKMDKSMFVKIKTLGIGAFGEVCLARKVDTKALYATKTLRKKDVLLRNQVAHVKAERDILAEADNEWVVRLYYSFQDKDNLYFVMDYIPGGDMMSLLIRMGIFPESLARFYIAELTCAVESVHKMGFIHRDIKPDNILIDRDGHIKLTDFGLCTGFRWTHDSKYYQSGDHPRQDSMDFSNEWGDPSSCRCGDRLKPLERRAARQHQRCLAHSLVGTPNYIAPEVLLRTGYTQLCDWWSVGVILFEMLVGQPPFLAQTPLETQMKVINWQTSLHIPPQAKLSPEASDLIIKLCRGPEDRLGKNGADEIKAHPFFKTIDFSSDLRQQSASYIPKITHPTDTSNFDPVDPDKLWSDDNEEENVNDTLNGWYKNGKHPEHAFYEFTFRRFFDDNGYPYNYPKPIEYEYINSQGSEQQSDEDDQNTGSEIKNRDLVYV
Chain of Dual specificity protein kinase CLK4 (Homo sapiens) (Q9HAZ1 whole entry, looked up): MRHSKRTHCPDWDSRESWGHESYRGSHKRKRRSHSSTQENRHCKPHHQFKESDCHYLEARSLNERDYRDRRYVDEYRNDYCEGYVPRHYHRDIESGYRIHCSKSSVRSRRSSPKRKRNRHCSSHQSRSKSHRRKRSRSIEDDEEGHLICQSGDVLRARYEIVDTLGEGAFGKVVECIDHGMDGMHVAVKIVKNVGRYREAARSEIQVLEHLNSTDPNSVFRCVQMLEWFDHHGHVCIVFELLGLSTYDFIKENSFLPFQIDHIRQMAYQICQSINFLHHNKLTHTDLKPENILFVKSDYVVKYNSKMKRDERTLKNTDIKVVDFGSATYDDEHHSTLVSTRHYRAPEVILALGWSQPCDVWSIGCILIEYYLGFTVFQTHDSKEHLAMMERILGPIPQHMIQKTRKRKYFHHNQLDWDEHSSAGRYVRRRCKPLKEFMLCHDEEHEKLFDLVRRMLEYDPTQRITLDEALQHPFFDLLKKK

CC(=O)C1=C(C)N(c2cccc(C(F)(F)F)c2)C(=O)N[C@@H]1c1ccc(C#N)nc1 [BAY-678]
inactive: residual activity [1] 90.8% | residual activity [2] 100% | residual activity [3] 100% | residual activity [4] 100% | residual activity [5] 100% | residual activity [6] 100% | residual activity [7] 100% | residual activity [8] 83.8% | residual activity [9] 88.3% | residual activity [10] 86.5% | residual activity [11] 100% | inhibition [12] 11.9% | residual activity [13] 100% | residual activity [14] 70.5% | residual activity [15] 100% | residual activity [16] 100% | residual activity [17] 100% | residual activity [18] 64.2% | residual activity [19] 67.1% | residual activity [20] 83.5% | residual activity [21] 100% | residual activity [22] 85.1% | residual activity [23] 93.7% | residual activity [24] 100% | residual activity [25] 75.8% | residual activity [26] 90% | residual activity [27] 100% | residual activity [28] 100% | residual activity [29] 100% | residual activity [30] 100% | residual activity [31] 100% | residual activity [32] 100% | inhibition [33] -6.78% | residual activity [34] 100% | residual activity [35] 89.2% | residual activity [36] 100% | residual activity [37] 97.9% | residual activity [38] 100% | residual activity [39] 76.9% | residual activity [40] 100% | residual activity [41] 92.3% | residual activity [42] 90.6% | residual activity [43] 96.5% | residual activity [44] 72.6%
